According to PubChem BioAssay AID1863 (Southern Research Specialized Biocontainment Screening …, 2009):
pIC50: −log10 of the molar value.

Tested on: S. Typhimurium PhoP-regulated promoter GFP reporter, 4 h
Assay: inhibitors of PhoP regulon expression, primary screen, Salmonella Typhimurium, GFP reporter (AID 1863)

Row | SMILES | pIC50
1 | C=C1c2c(Cl)ccc(O)c2C(O)=C2C(=O)[C@]3(O)C(O)=C(C(N)=O)C(=O)[C@@H](N(C)C)[C@@H]3[C@@H](O)C12 (stereo partly drawn) | 5.65
2 | CCOc1cc(/C=N/N=C(N)N)ccc1OCc1ccc(Cl)cc1 | 4.34
3 | CCCNC(=O)c1cn(CC)c2cc(N3CCN(C)CC3)c(F)cc2c1=O | 4.59
4 | Cc1cc(C(C)(C)CC(C)(C)C)ccc1OCCOCC[N+](C)(C)Cc1ccccc1 | 4.50
5 | COc1ccc(/C=N/Nc2cc(C)nc3c(C)cccc23)cc1 | 4.09
6 | O=Cc1ccc(O)c2ncccc12 | 4.99
7 | CC(C)COc1ccc(Cc2cnc(N)nc2N)cc1 | 4.01
8 | CC[C@H]1OC(=O)[C@H](C)[C@@H](O[C@H]2C[C@@](C)(OC)[C@@H](O)[C@H](C)O2)[C@H](C)[C@@H](O[C@@H]2O[C@H](C)C[C@H](N(C)C)[C@H]2O)[C@](C)(O)C[C@@H](C)[C@@H]2N[C@@H](COCCOC)O[C@H]([C@H]2C)[C@]1(C)O | 4.48
9 | CCCCCCCCCCOC(=O)C[N+](C)(C)C/C=C(/C)Cl | 4.29
10 | O=S1(=O)Nc2c(ccc3cccnc23)-c2ccccc21 | 5.11
11 | O=C(Cn1nc(CNc2ccc(Cl)cc2)[n+]2c1CCCCC2)c1ccc(Br)cc1 | 4.04
12 | COc1c(N2CCN(C(=S)Nc3ccccc3F)C(C)C2)c(F)cc2c(=O)c(C(=O)O)cn(C3CC3)c12 (stereo not drawn) | 5.27
13 | COC12C(COC(N)=O)C3=C(C(=O)C(C)=C(N)C3=O)N1CC1C2N1C (stereo not drawn) | 4.79
14 | Nc1cc2nsnc2cc1Br | 3.98
15 | O=C1NC(=S)S/C1=C\C=C\c1ccc([N+](=O)[O-])o1 | 4.65
16 | O=c1[nH]cc(F)c(=O)[nH]1 | 5.01
17 | OCCN1CCN(Cc2cc(Cl)c3cccnc3c2O)CC1 | 3.98
18 | COc1cc(Cc2cc(N)nc(N)n2)cc(OC)c1OC | 5.30
19 | Oc1c(Br)cc(Br)cc1C=NCc1ccccc1 | 3.99
20 | CCn1cc(C(=O)O)c(=O)c2cnc(N3CCNCC3)nc21 | 4.53
21 | CC[C@H]1OC(=O)C[C@@H](O)[C@H](C)[C@@H](O[C@@H]2O[C@H](C)C[C@H](N(C)C)[C@H]2O)[C@@H](CC=O)C[C@@H](C)C(=O)C=C[C@]2(C)O[C@H]2[C@@H]1C | 4.74
22 | Cc1cccc(Nc2c3c(nc4ccccc24)CCC3)c1 | 3.97
23 | CN1/C(=C\C=C\C2=[N+](C)c3ccc4ccccc4c3C2(C)C)C(C)(C)c2ccccc21 | 4.99
